According to patent US20260007712A1, “COMPOSITION FOR PREVENTING, AMELIORATING OR TREATING PERIODONTAL DISEASES” (NUTRACORE CO., LTD., priority 2022, published 2026):

Assays:
Assay type in all cases: in vivo
MDA = MDA content in gingival tissue, EPD rat model; details: EPD rats; extracts 200 mg/kg, IND 5 mg/kg, oral once daily for 10 days; FIG. 8
Text: (§1) In this study, as part of the development of functional food ingredients derived from natural products to improve periodontitis and periodontal bone damage, three types of natural product extracts, dried rehmanniae radix, wasabi leaf, and Sancho extracts, that are well known for various physiological activities, including anti-inflammatory and antioxidant effects were compared and explored using a tooth neck ligation rat periodontal disease (experimental periodontitis; EPD) model to investigate the efficacy against periodontitis and periodontal bone loss.
(§2) Specifically, a total of 121 SPF/VAF Outbred Crl:CD [SD] male rats (OrientBio, Seungnam, Korea) were obtained, and after acclimatization for 7 days, experimental animals with a constant body weight were selected, and 10 animals per group were divided and tested in 7 groups below (normal medium control group: average 248.90±8.23 g, 236.00˜261.00 g; EPD-induced group: average 248.14±9.85 g, 219.00˜272.00 g). […]
(§3) Daily body weight was measured from 1 day before ligation, periodontal bone loss rate was measured on the final sacrifice day, some gingival tissue was extracted, changes in IL-1β, TNF-α, and MDA content were observed. The number of infiltrating inflammatory cells in the gingival tissue, periodontal bone volume (alveolar bone volume), and collagen content in the gums were measured.

[1] = system: periodontal bone mass (alveolar bone volume); test: Periodontal bone mass (alveolar bone volume), EPD rat model; details: EPD rats; extracts 200 mg/kg, IND 5 mg/kg, oral once daily for 10 days; FIG. 4
Text: as §1, §2, §3

IL-1β = IL-1β content in gingival tissue, EPD rat model; details: EPD rats; extracts 200 mg/kg, IND 5 mg/kg, oral once daily for 10 days; top of FIG. 7
Text: as §1, §2, §3

[2] = system: collagen fibers in gingival tissue; test: Collagen fiber content in gingival tissue, EPD rat model; details: EPD rats; extracts 200 mg/kg, IND 5 mg/kg, oral once daily for 10 days; FIG. 6
Text: as §1, §2, §3

[3] = system: periodontal bone loss (alveolar bone loss); test: Periodontal bone loss rate, tooth neck ligation rat periodontal disease (EPD) model; details: EPD rats; extracts 200 mg/kg, IND 5 mg/kg, oral once daily for 10 days from 24 h after ligation; FIG. 3
Text: as §1, §2, §3

TNF-α = TNF-α content in gingival tissue, EPD rat model; details: EPD rats; extracts 200 mg/kg, IND 5 mg/kg, oral once daily for 10 days; bottom of FIG. 7
Text: as §1, §2, §3

[4] = system: infiltrating inflammatory cells in gingival tissue; test: Number of infiltrating inflammatory cells in gingival tissue, EPD rat model; details: EPD rats; extracts 200 mg/kg, IND 5 mg/kg, oral once daily for 10 days; FIG. 5
Text: as §1, §2, §3

## COc1ccc2c(c1)c(CC(=O)O)c(C)n2C(=O)c1ccc(Cl)cc1 [IND, Indomethacin]
MDA
  change in MDA content in gingival tissue compared to the EPD control group: −42.44%
[1]
  change in periodontal bone mass compared to the EPD control group: 188.14%
IL-1β
  change in IL-1β content in gingival tissue compared to the EPD control group: −54.75%
[2]
  change in proportion of collagen fibers in gingival tissue compared to the EPD control group: 148.65%
[3]
  change in periodontal bone loss rate compared to the EPD control group: −26.49%
TNF-α
  change in TNF-α content in gingival tissue compared to the EPD control group: −50.46%
[4]
  change in number of infiltrating inflammatory cells in gingival tissue compared to the EPD control group: −57.61%
